In assay [1] the test system is A. baumannii strain JC7/04 pAT-RA. The assay is described as follows: microbe, parasite or virus in culture. Format: cell-based, Acinetobacter baumannii.
The test system of assay [2] is A. baumannii strain JC7/04 pAT-RA/OXA-24 (WT). The assay is described as follows: microbe, parasite or virus in culture. Format: cell-based, Acinetobacter baumannii.
The subject of assay [3] is A. baumannii strain JC7/04 pAT-RA/OXA-24 (Y112A,M223A). The assay is described as follows: microbe, parasite or virus in culture. It counts as cell-based. As to conditions: Acinetobacter baumannii.
Assay [4] deals with OXA-24 Tyr112Ala (Acinetobacter baumannii, UniProt Q8RLA6, Y112A). As to conditions: substrate hydrolysis by OXA-24 Tyr112Ala.
Assay [5] addresses OXA-24 Tyr112Ala Met 223Ala (Acinetobacter baumannii, UniProt Q8RLA6, M223A/Y112A). The settings on record: substrate hydrolysis by OXA-24 Tyr112Ala Met223Ala.
Where [6] appears, read: pAT-RA without blaOXA-24, tazobactam, 1-5 tested at 16 μg/ml, 50 μg/mL rifampin.
Setting [7] is: pAT-RA/OXA-24 (WT), tazobactam, 1-5 tested at 4 μg/ml, 50 μg/mL rifampin.
Setting [8] is: pAT-RA/OXA-24 (WT), tazobactam, 1-5 tested at 16 μg/ml, 50 μg/mL rifampin.

Experimental findings from publication PMC3393087 (Journal of the American Chemical Society, 2010) are described below.

≈ marks a conversion by molar mass, not a printed value. Like-named read-outs stand apart in the source and are kept apart here. A value given as a limit tells only on which side of the number the result lay.

The Km is the concentration of substrate that gives half-maximal velocity.

In the case of `C[C@@H](O)[C@H]1C(=O)N2C(C(=O)O)=C(SCCN=CN)C[C@H]12` [Imipenem, imipenem], the MIC in assay [1] (setting [6]) came out at 1 µg/mL; in assay [2] (Acinetobacter baumannii), 32 µg/mL (≈ 107 µM); in assay [2] (setting [7]), 32 µg/mL; in assay [2] (setting [8]), 32 µg/mL; in assay [3], 4 µg/mL (≈ 13.4 µM).

`C[C@@H](O)[C@H]1C(=O)N2C(C(=O)O)=C(S[C@@H]3CN[C@H](C(=O)N(C)C)C3)[C@H](C)[C@H]12` [Meropenem, meropenem]: the MIC is 1 µg/mL in assay [1] (pAT-RA without blaOXA-24, tazobactam, 1-5 tested at 4 μg/ml, 50 μg/mL rifampin); 1 µg/mL in assay [1] (setting [6]); 32 µg/mL (≈ 83.4 µM) in assay [2] (Acinetobacter baumannii); 32 µg/mL in assay [2] (setting [7]); 32 µg/mL in assay [2] (setting [8]); 2 µg/mL (≈ 5.22 µM) in assay [3].

As for `O=C(Cc1cccs1)N[C@@H]1C(=O)N2C(C(=O)O)=C(/C=C/c3ccc([N+](=O)[O-])cc3[N+](=O)[O-])CS[C@H]12` [NCF, nitrocefin], the Km stood at 238 µM in assay [4] and 143 µM in assay [5].

On to `C[C@]1(Cn2ccnn2)[C@H](C(=O)O)N2C(=O)C[C@H]2S1(=O)=O` [tazobactam], for which, in assay [1] (Acinetobacter baumannii, JC7/04PATRA, read-out: MIC of inhibitor alone), the MIC is greater than 64 µg/mL. Further, in assay [2] (inhibitor at 4 μg/ml combined with meropenem or imipenem, blaOXA-24 expressed), the “reduction in MICs of meropenem or imipenem” value is listed as “did not detect a reduction in MICs”.
